These results are taken from ChEMBL document CHEMBL1201862, “PubChem BioAssay data set” (2004).

Assay in all cases: NCI-60 cell line screen, 48 h
Experiment [1] deals with 786-0.
The test system of experiment [2] is A549.
In experiment [3] the test system is EKVX.
Experiment [4] relates to HCC 2998.
The subject of experiment [5] is HOP-92.
The subject of experiment [6] is IGROV-1.
In experiment [7] the test system is K562.
In experiment [8] the test system is Malme-3M.
Experiment [9] concerns NCI-H226.
Experiment [10] has as its system SF-268.
Experiment [11] relates to SK-MEL-28.
Experiment [12] deals with SK-MEL-5.
In experiment [13] the test system is SNB-75.
For experiment [14], the system named is SR.
For experiment [15], the system named is TK-10.
The subject of experiment [16] is OVCAR-5.
The test system of experiment [17] is RPMI-8226.

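A five-concentration, 48-hour dose response in 96-well plates underlies each endpoint, interpolated linearly between surrounding concentrations. GI50 = concentration required for 50% inhibition of growth.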 Calls of active or inactive are those of the source. Rule as the data show it: active = GI50 up to about 1.1 µM and inactive = higher.

Consider `O=C1CCC(c2nc3ccccc3o2)C(=O)N1` (stereo not given), for which the GI50 in experiment [1], in experiment [2], in experiment [3], in [4], in experiment [5] and in experiment [6] was > 100 µM (inactive) throughout. Moreover, the GI50 in experiment [7], in experiment [8], in experiment [9], in [10], in experiment [11] and in experiment [12] was > 100 µM (inactive) each time. For the same molecule, the figures for the GI50 in experiment [13], in [14] and in experiment [15] were 79.1 µM (inactive), > 100 µM (inactive) and > 100 µM (inactive), respectively.
With `COc1ccc(C(=O)C=C2NCCN2)cc1`, the GI50 in experiment [1], in experiment [2], in [3], in [4], in experiment [5] and in experiment [6] was > 100 µM (inactive) each time. Besides, the GI50 in experiment [7], in experiment [8], in experiment [9], in experiment [16], in [17] and in experiment [10] was > 100 µM (inactive) throughout. Moreover, the GI50 in experiment [11], in [12], in [13], in experiment [14] and in experiment [15] was > 100 µM (inactive) each time.
As to `O=C1c2ccccc2C(=O)C1C(c1ccc(F)cc1)C1C(=O)c2ccccc2C1=O`, the GI50 in experiment [1], in [2], in experiment [3], in experiment [4], in experiment [5] and in experiment [7] was > 100 µM (inactive) in each case. For the same molecule, the GI50 in [8] is > 100 µM (inactive); in [9], > 100 µM (inactive); in experiment [16], > 100 µM (inactive); in experiment [17], 48.3 µM (inactive); in [10], > 100 µM (inactive); in experiment [11], > 100 µM (inactive). The GI50 in experiment [12] is > 100 µM (inactive); in experiment [13], 55 µM (inactive); in experiment [14] it was 41.5 µM (inactive); in [15], > 100 µM (inactive).
Turning to `N#CC1(N2CCCC2)CCC2(CC1)OCCO2`, the GI50 in experiment [1], in experiment [2], in experiment [3], in [4], in experiment [5] and in experiment [6] was > 100 µM (inactive) each time. For the same molecule, the GI50 in experiment [7], in experiment [8], in experiment [9], in experiment [16], in [17] and in experiment [10] was > 100 µM (inactive) each time. Moreover, the GI50 in [11], in [12], in experiment [13], in experiment [14] and in experiment [15] was > 100 µM (inactive) each time.
Turning to `COc1ccc(Nc2nc3cc(C(F)(F)F)ccc3nc2-c2ccccc2)cc1OC`, the GI50 was 41.8 µM (inactive) in experiment [1]; 25.9 µM (inactive) in experiment [2]; 17.3 µM (inactive) in experiment [3]; > 100 µM (inactive) in experiment [4]; 1.16 µM (inactive) in [5]; 24.9 µM (inactive) in experiment [6]. The GI50 was 61 µM (inactive) in experiment [7]; 21.7 µM (inactive) in experiment [8]; 15.8 µM (inactive) in experiment [9]; > 100 µM (inactive) in experiment [16]; 38 µM (inactive) in experiment [10]; 19.8 µM (inactive) in experiment [11]. The GI50 in [12] is 20.3 µM (inactive); in [13], 28.4 µM (inactive); in experiment [14], 75.9 µM (inactive); in experiment [15], 15 µM (inactive).
With `CC(=O)OCC1OC(OC2CC3C(C)(C)C(O)CC[C@]3(C)C3CCC45CC4(CC[C@H]5C(C)CC(O)C4OC4(C)C)[C@]23C)C(O)C(O)C1O` (stereo not given in full), the GI50 was 7.57 µM (inactive) in [1]; 10.6 µM (inactive) in [2]; 8.61 µM (inactive) in [3]; 7.06 µM (inactive) in experiment [4]; 5.06 µM (inactive) in experiment [5]; 0.966 µM (active) in experiment [6]. Also, the GI50 in experiment [7] was 1.85 µM (inactive); in [8], 8.97 µM (inactive); in [9], 8.95 µM (inactive); in experiment [16] it was 9.12 µM (inactive); in [17], 0.711 µM (active); in experiment [10], 6.38 µM (inactive). For the same molecule, the GI50 in [11] is 7.41 µM (inactive); in [12], 3.1 µM (inactive); in experiment [13], 7.46 µM (inactive); in [14], 1.47 µM (inactive); in [15], 8.73 µM (inactive).
For the molecule `CN(C)/N=N/c1c[nH]nc1C(N)=O`, the GI50 in experiment [1], in experiment [2], in experiment [3], in [4], in [5] and in experiment [6] was > 100 µM (inactive) each time. Besides, the GI50 was 54.8 µM (inactive) in experiment [7]; > 100 µM (inactive) in experiment [8]; > 100 µM (inactive) in experiment [9]; > 100 µM (inactive) in [16]; > 100 µM (inactive) in experiment [17]; > 100 µM (inactive) in experiment [10]. Moreover, the GI50 was > 100 µM (inactive) in experiment [11]; > 100 µM (inactive) in [12]; > 100 µM (inactive) in experiment [13]; 31.3 µM (inactive) in [14]; > 100 µM (inactive) in [15].
In the case of `N#CC1(CCCCl)CCCCC1`, the GI50 in experiment [1], in experiment [2], in [3], in experiment [4], in experiment [5] and in experiment [6] was > 100 µM (inactive) each time. Also, the GI50 in [7] was > 10 µM (inactive); in experiment [8] it was > 100 µM (inactive); in experiment [16] it was > 100 µM (inactive); in [10] it was > 100 µM (inactive); in experiment [11], > 100 µM (inactive); in [12] it was > 100 µM (inactive). Moreover, the GI50 in experiment [13] was 32.4 µM (inactive); in experiment [14] it was > 100 µM (inactive); in experiment [15] it was > 100 µM (inactive).
Regarding `C=CCOC(C)n1c(C)c(Br)c(=O)[nH]c1=O` (stereo not given), the GI50 in experiment [1], in [2], in experiment [3], in [4], in experiment [5] and in experiment [6] was > 100 µM (inactive) each time. The GI50 in [8], in experiment [9], in [16], in experiment [10], in experiment [11] and in experiment [12] was > 100 µM (inactive) in each case. The GI50 in experiment [13], in experiment [14] and in experiment [15] was > 100 µM (inactive) each time.
